{"source": "patent US20200405697A1", "about": "“Antitumor Agent” (Taiho Pharmaceutical Co., Ltd, priority 2017, published 2020)", "tested_on": "A549 (Human lung cancer cell line)", "assay": "Effect of combination of sulfonamide compound and other antitumor agent (CellTiter-Glo, combination index): A549", "key": {"[1]": {"conditions": "Example Compound 1 281 nM + Fludarabine nucleoside 5920 nM, molar ratio 1:21.08"}, "[2]": {"conditions": "Example Compound 1 281 nM + Prexasertib 1.97 nM, molar ratio 1:0.007018"}, "[3]": {"conditions": "Example Compound 1 281 nM + SCH900776 908 nM, molar ratio 1:3.232"}, "[4]": {"conditions": "Example Compound 1 422 nM + AZD6738 1040 nM, molar ratio 1:2.455"}, "[5]": {"conditions": "Example Compound 1 422 nM + Cytarabine 108 nM, molar ratio 1:0.2566"}, "[6]": {"conditions": "Example Compound 1 422 nM + Fludarabine nucleoside 8900 nM, molar ratio 1:21.08"}, "[7]": {"conditions": "Example Compound 1 422 nM + Prexasertib 2.96 nM, molar ratio 1:0.007018"}, "[8]": {"conditions": "Example Compound 1 422 nM + SCH900776 1360 nM, molar ratio 1:3.232"}, "[9]": {"conditions": "Example Compound 1 633 nM + AZD6738 1550 nM, molar ratio 1:2.455"}, "[10]": {"conditions": "Example Compound 1 633 nM + Fludarabine nucleoside 13300 nM, molar ratio 1:21.08"}, "[11]": {"conditions": "Example Compound 1 633 nM + Guadecitabine 489 nM, molar ratio 1:0.7725"}, "[12]": {"conditions": "Example Compound 1 633 nM + Prexasertib 4.44 nM, molar ratio 1:0.007018"}, "[13]": {"conditions": "Example Compound 1 633 nM + SCH900776 2050 nM, molar ratio 1:3.232"}, "[14]": {"conditions": "Example Compound 1 949 nM + AZD6738 2330 nM, molar ratio 1:2.455"}, "[15]": {"conditions": "Example Compound 1 949 nM + Azacytidine 2740 nM, molar ratio 1:2.885"}, "[16]": {"conditions": "Example Compound 1 949 nM + Cytarabine 244 nM, molar ratio 1:0.2566"}, "[17]": {"conditions": "Example Compound 1 949 nM + Decitabine 2000 nM, molar ratio 1:2.108"}, "[18]": {"conditions": "Example Compound 1 949 nM + Fludarabine nucleoside 20000 nM, molar ratio 1:21.08"}, "[19]": {"conditions": "Example Compound 1 949 nM + Guadecitabine 733 nM, molar ratio 1:0.7725"}, "[20]": {"conditions": "Example Compound 1 949 nM + Prexasertib 6.66 nM, molar ratio 1:0.007018"}, "[21]": {"conditions": "Example Compound 1 949 nM + SCH900776 3070 nM, molar ratio 1:3.232"}, "[22]": {"conditions": "Example Compound 1 949 nM + Sunitinib 1870 nM, molar ratio 1:1.969"}, "[23]": {"conditions": "Example Compound 1 949 nM + Trifluridine 430 nM, molar ratio 1:0.4535"}, "[24]": {"conditions": "Example Compound 1 1420 nM + 5-Fluorouracil 2700 nM, molar ratio 1:1.900"}, "[25]": {"conditions": "Example Compound 1 1420 nM + AZD6738 3490 nM, molar ratio 1:2.455"}, "[26]": {"conditions": "Example Compound 1 1420 nM + Azacytidine 4100 nM, molar ratio 1:2.885"}, "[27]": {"conditions": "Example Compound 1 1420 nM + Cytarabine 364 nM, molar ratio 1:0.2566"}, "[28]": {"conditions": "Example Compound 1 1420 nM + Decitabine 2990 nM, molar ratio 1:2.108"}, "[29]": {"conditions": "Example Compound 1 1420 nM + Etoposide 3780 nM, molar ratio 1:2.663"}, "[30]": {"conditions": "Example Compound 1 1420 nM + Gemcitabine 8.37 nM, molar ratio 1:0.005895"}, "[31]": {"conditions": "Example Compound 1 1420 nM + Guadecitabine 1100 nM, molar ratio 1:0.7725"}, "[32]": {"conditions": "Example Compound 1 1420 nM + Lapatinib 5990 nM, molar ratio 1:4.216"}, "[33]": {"conditions": "Example Compound 1 1420 nM + Luminespib 13.5 nM, molar ratio 1:0.009473"}, "[34]": {"conditions": "Example Compound 1 1420 nM + Midostaurin 250 nM, molar ratio 1:0.1761"}, "[35]": {"conditions": "Example Compound 1 1420 nM + Olaparib 14800 nM, molar ratio 1:10.40"}, "[36]": {"conditions": "Example Compound 1 1420 nM + Oxaliplatin 1060 nM, molar ratio 1:0.7448"}, "[37]": {"conditions": "Example Compound 1 1420 nM + Sunitinib 2800 nM, molar ratio 1:1.969"}, "[38]": {"conditions": "Example Compound 1 1420 nM + Talazoparib 7980 nM, molar ratio 1:5.617"}, "[39]": {"conditions": "Example Compound 1 1420 nM + Trifluridine 644 nM, molar ratio 1:0.4535"}, "[40]": {"conditions": "Example Compound 1 2140 nM + Cabozantinib […], molar ratio 1:4.216"}, "[41]": {"conditions": "Example Compound 1 2140 nM + Carboplatin 79500 nM, molar ratio 1:37.17"}, "[42]": {"conditions": "Example Compound 1 2140 nM + Cisplatin 9620 nM, molar ratio 1:4.494"}, "[43]": {"conditions": "Example Compound 1 2140 nM + Trifluridine 970 nM, molar ratio 1:0.4535"}, "[44]": {"conditions": "Example Compound 1 3200 nM + Carboplatin 119000 nM, molar ratio 1:37.17"}, "[45]": {"conditions": "Example Compound 1 3200 nM + Cisplatin 14400 nM, molar ratio 1:4.494"}, "[46]": {"conditions": "Example Compound 1 4810 nM + Carboplatin 179000 nM, molar ratio 1:37.17"}}, "method": "Each cell line was seeded at 90 L/well to a 96-well culture plate (Thermo Fisher Scientific, Inc.) according to the above tables. The cell-seeded plate was cultured in an incubator set to 37° C. and 500 CO2. On the day following seeding, varying concentrations of the sulfonamide compound and the other antitumor agent were added in combination to the cells. […] The serial dilutions of each compound, or DW was added at 5μL/well to the plate such that each compound and DW, or the sulfonamide compound and the other antitumor agent were combined. […] The plate after the addition was cultured at 37° C. for 3 days under 5% CO2 conditions.\nThree days later, CellTiter-Glo(R) 2.0 Reagent (Promega Corporation) was added at 100 μL/well, and the amount of luminescence was measured using a plate reader EnSpire(R) Multimode Plate Reader (PerkinElmer Co., Ltd.).\nAn average value from 3 wells was calculated as to each drug condition from the obtained data, and cell survival rate normalized against control wells supplemented with the vehicle (DW) was calculated. A Fa (fractional inhibition) value was calculated by subtracting the cell survival rate from 1."}
{"smiles": "Cc1ccc(F)c([C@@H](C)[C@H](NS(=O)(=O)c2ccc(Br)cc2C(N)=O)c2n[nH]c(=O)o2)c1C", "note": "[Example 1, 5-bromo-2-(N-((1 S,2R)-2-(6-fluoro-2,3-dimethylphenyl)-1-(5-oxo-4,5-dihydro-1,3,4-oxadiazol-2-yl)propyl)sulfamoyl)benzamide]", "values": [{"measurement": "CI value", "setting": "[1]", "value": 0.550}, {"measurement": "Fa value", "setting": "[1]", "value": 0.2653}, {"measurement": "CI value", "setting": "[2]", "value": 0.349}, {"measurement": "Fa value", "setting": "[2]", "value": 0.3570}, {"measurement": "CI value", "setting": "[3]", "value": 0.196}, {"measurement": "Fa value", "setting": "[3]", "value": 0.6117}, {"measurement": "CI value", "setting": "[4]", "value": 0.449}, {"measurement": "Fa value", "setting": "[4]", "value": 0.5145}, {"measurement": "CI value", "setting": "[5]", "value": 0.770}, {"measurement": "Fa value", "setting": "[5]", "value": 0.4482}, {"measurement": "CI value", "setting": "[6]", "value": 0.388}, {"measurement": "Fa value", "setting": "[6]", "value": 0.6824}, {"measurement": "CI value", "setting": "[7]", "value": 0.226}, {"measurement": "Fa value", "setting": "[7]", "value": 0.7264}, {"measurement": "CI value", "setting": "[8]", "value": 0.195}, {"measurement": "Fa value", "setting": "[8]", "value": 0.7479}, {"measurement": "CI value", "setting": "[9]", "value": 0.350}, {"measurement": "Fa value", "setting": "[9]", "value": 0.7602}, {"measurement": "CI value", "setting": "[10]", "value": 0.367}, {"measurement": "Fa value", "setting": "[10]", "value": 0.8650}, {"measurement": "CI value", "setting": "[11]", "value": 0.471}, {"measurement": "Fa value", "setting": "[11]", "value": 0.4374}, {"measurement": "CI value", "setting": "[12]", "value": 0.193}, {"measurement": "Fa value", "setting": "[12]", "value": 0.8863}, {"measurement": "CI value", "setting": "[13]", "value": 0.190}, {"measurement": "Fa value", "setting": "[13]", "value": 0.8581}, {"measurement": "CI value", "setting": "[14]", "value": 0.315}, {"measurement": "Fa value", "setting": "[14]", "value": 0.8849}, {"measurement": "CI value", "setting": "[15]", "value": 0.895}, {"measurement": "Fa value", "setting": "[15]", "value": 0.5060}, {"measurement": "CI value", "setting": "[16]", "value": 0.461}, {"measurement": "Fa value", "setting": "[16]", "value": 0.7886}, {"measurement": "CI value", "setting": "[17]", "value": 0.501}, {"measurement": "Fa value", "setting": "[17]", "value": 0.5507}, {"measurement": "CI value", "setting": "[18]", "value": 0.537}, {"measurement": "Fa value", "setting": "[18]", "value": 0.8719}, {"measurement": "CI value", "setting": "[19]", "value": 0.502}, {"measurement": "Fa value", "setting": "[19]", "value": 0.5583}, {"measurement": "CI value", "setting": "[20]", "value": 0.288}, {"measurement": "Fa value", "setting": "[20]", "value": 0.8866}, {"measurement": "CI value", "setting": "[21]", "value": 0.257}, {"measurement": "Fa value", "setting": "[21]", "value": 0.8783}, {"measurement": "CI value", "setting": "[22]", "value": 0.721}, {"measurement": "Fa value", "setting": "[22]", "value": 0.6537}, {"measurement": "CI value", "setting": "[23]", "value": 0.890}, {"measurement": "Fa value", "setting": "[23]", "value": 0.6005}, {"measurement": "CI value", "setting": "[24]", "value": 0.881}, {"measurement": "Fa value", "setting": "[24]", "value": 0.6426}, {"measurement": "CI value", "setting": "[25]", "value": 0.482}, {"measurement": "Fa value", "setting": "[25]", "value": 0.8809}, {"measurement": "CI value", "setting": "[26]", "value": 0.676}, {"measurement": "Fa value", "setting": "[26]", "value": 0.7364}, {"measurement": "CI value", "setting": "[27]", "value": 0.491}, {"measurement": "Fa value", "setting": "[27]", "value": 0.8557}, {"measurement": "CI value", "setting": "[28]", "value": 0.583}, {"measurement": "Fa value", "setting": "[28]", "value": 0.6575}, {"measurement": "CI value", "setting": "[29]", "value": 0.772}, {"measurement": "Fa value", "setting": "[29]", "value": 0.6999}, {"measurement": "CI value", "setting": "[30]", "value": 0.858}, {"measurement": "Fa value", "setting": "[30]", "value": 0.8410}, {"measurement": "CI value", "setting": "[31]", "value": 0.563}, {"measurement": "Fa value", "setting": "[31]", "value": 0.6756}, {"measurement": "CI value", "setting": "[32]", "value": 0.480}, {"measurement": "Fa value", "setting": "[32]", "value": 0.8412}, {"measurement": "CI value", "setting": "[33]", "value": 0.894}, {"measurement": "Fa value", "setting": "[33]", "value": 0.7741}, {"measurement": "CI value", "setting": "[34]", "value": 0.871}, {"measurement": "Fa value", "setting": "[34]", "value": 0.7361}, {"measurement": "CI value", "setting": "[35]", "value": 0.761}, {"measurement": "Fa value", "setting": "[35]", "value": 0.6398}, {"measurement": "CI value", "setting": "[36]", "value": 0.831}, {"measurement": "Fa value", "setting": "[36]", "value": 0.7172}, {"measurement": "CI value", "setting": "[37]", "value": 0.688}, {"measurement": "Fa value", "setting": "[37]", "value": 0.8162}, {"measurement": "CI value", "setting": "[38]", "value": 0.661}, {"measurement": "Fa value", "setting": "[38]", "value": 0.6630}, {"measurement": "CI value", "setting": "[39]", "value": 0.717}, {"measurement": "Fa value", "setting": "[39]", "value": 0.8230}, {"measurement": "CI value", "setting": "[40]", "value": 0.790}, {"measurement": "Fa value", "setting": "[40]", "value": 0.9173}, {"measurement": "CI value", "setting": "[41]", "value": 0.632}, {"measurement": "Fa value", "setting": "[41]", "value": 0.9198}, {"measurement": "CI value", "setting": "[42]", "value": 0.848}, {"measurement": "Fa value", "setting": "[42]", "value": 0.9125}, {"measurement": "CI value", "setting": "[43]", "value": 0.761}, {"measurement": "Fa value", "setting": "[43]", "value": 0.8988}, {"measurement": "CI value", "setting": "[44]", "value": 0.502}, {"measurement": "Fa value", "setting": "[44]", "value": 0.9734}, {"measurement": "CI value", "setting": "[45]", "value": 0.694}, {"measurement": "Fa value", "setting": "[45]", "value": 0.9675}, {"measurement": "CI value", "setting": "[46]", "value": 0.569}, {"measurement": "Fa value", "setting": "[46]", "value": 0.9841}]}
